Experimental data reported in patent publication US20020054941A1, “Methods and compositions to enhance tenderness and value of meat” (The Board of Regents of the University of Nebraska, priority 2000, published 2002).
“Also recorded” adds a separate entry of the source. Marks after values point to notes of the source that are not given here.

Experiments:
Supraspinatus (SSP) = experiment: Warner-Bratzler shear force of muscle pumped pre-rigor with sodium citrate; design: species or system steers; unit not given here
Method: (§1) Thoracic limbs from 14 steers were chilled on the carcass (controls) or removed within 2 hours post-mortem and pumped to 10% of muscle weight with water, 200 mM or 400 mM sodium citrate solutions. The injections were performed at various sites along the muscle. The control remained on the carcass. Muscle pH and temperature were measured immediately prior to pumping. Experimental and control muscles were chilled at 2° C. for 24 hours. Steaks (2.54 cm thick) were removed after 24 hours from the Infraspinatus, Supraspinatus and Triceps brachii muscles and were either frozen immediately or aged for another 6 days and then evaluated. A consumer panel evaluated palatability juiciness, tenderness, connective tissue amount, and flavor desirability) on Infraspinatus and Triceps brachii steaks using 9-point hedonic scales (1 being very undesirable and 9 being very desirable) for each trait. Warner-Bratzler shear force values were determined on 1.27 cm-diameter cores from steaks that were broiled to an internal temperature of 70° C.

Infraspinatus (ISP) = experiment: as above; design: species or system steers; unit not given here
Method: as §1

[1] = test system: sternomandibularis beef muscles; experiment: Shear force of pre-rigor injected sectioned muscle; details: 200 mM (glucose, calcium chloride 300 mM)
Method: Pre-rigor beef muscle was sectioned into 100 g. samples at approximately 3 hours post-mortem. The pieces were injected with 10 mL of treatment solution followed by marination in the solution for 24 hours at 2° C. before testing pH and recording visual color of the muscle sections. For evaluation of shear force, samples were thawed, cooked, sliced (approximately 6 mm by 6 mm) and then cooled before readings were taken. The solutions used for this procedure were as described above for homogenized muscle.
Pre-rigor beef muscle was sectioned and the sections were injected at approximately 1 hour post-mortem with a volume of treatment solution equal to 10% of the muscle weight. Objective color measurements were taken on pieces of each muscle section and the pieces were then frozen, powdered and stored at −80° C. for up to 10 days before testing pH and analyzing oxidation-reduction potential. Shear force was evaluated as described immediately above. Solutions used in this procedure were as follows: sodium citrate (200 mM), sodium acetate (200 mM), glucose (300 mM), calcium citrate (200 mM), calcium chloride (300 mM), injection with water, and no injection (control). The calcium citrate solution was prepared as a suspension using 0.25% carrageenan and 200 mM calcium citrate due to its insolubility in water. However, use of calcium citrate can be optimized by increasing solubility by means known in the art.

[2] = test system: supraspinatus beef muscles; experiment: Warner-Bratzler shear force, pre-rigor injection of whole muscle; details: 200 mM
Method: (§2) Experiment were conducted to test the effects of pre-rigor injection of several compounds. Effects of these compounds on pH, color, tenderness and other related traits of low-value beef cuts were investigated. Ten steers (22 to 24 mo of age, 515 to 676 kg live weight) were slaughtered according to current industry procedures. Pre-rigor semimembranosus (from the round), triceps brachii and supraspinatus muscles (from the chuck) were excised, after evisceration (approximately 1 hour post-mortem), from both sides of the carcass. Muscle sections were randomly assigned to the treatments: sodium citrate (NaC; 200 mM), sodium fluoride (NaF; 200 mM), sodium acetate (NaA; 200 mM), and calcium chloride (CaCl2; 300 mM). The control samples remained on the carcass at 2° C. for 24 hours to simulate commercial conditions. Following a cooling, control muscles were removed from each carcass (4 replicates), vacuum packaged and transferred to the holding cooler with the other cuts at 2° C. Calcium chloride treatment was included to be compared with the other treatments.
(§3) At 2 hours post-mortem, each muscle was injected with a volume equal to 8% of the muscle weight using a four-needle hand injector. The temperature of solutions were 4° C. Each muscle was individually treated (2% of solution was added to give a total of 10% of muscle weight) and tumbled in a 75-pound capacity tumbler (Röschermatic, Oshabrück, Germany) for 30 min to insure uniform distribution of the solution.
(§4) Tenderness of samples was evaluated by measuring Warner-Bratzler shear force. Steaks (2.54-cm thick) from the middle of each muscle were cut and frozen at 3, 7 and 14 days postmortem. Frozen steaks (2.54 cm thick) were thawed at 4° C. for 24 hours and cooked on Farberware Open Hearth Broilers (Model 350A Walter Kidde, Bronx, N.Y.) to an internal temperature of 40° C., turned, and cooked to a final internal temperature of 70° C. (AMSA, 1995). Temperature was monitored using an OMEGA thermocouple thermometer type T (Omega Engineering, Inc., Stamford, Conn.) inserted into the geometric center of a steak. The cooked steaks were chilled 2 hours at 2° C., and then 8 cores (1.27-cm diameter) were removed parallel to the muscle fiber orientation. Cores were sheared once each on an Instron Universal Testing Machine model 55R1123 (Instron, Canton, Mass.) with a Warner-Braztler attachment. The Instron was set up with a 500 kg load cell, full scale load=1 (0-10 kg), and crosshead speed=250 mm/mim.

[3] = test system: semimembranosus beef muscles; experiment: as above; details: 200 mM, calcium chloride 300 mM
Method: as §2, §3, §4

[4] = test system: triceps brachii beef muscles; experiment: as above; details: 200 mM, calcium chloride 300 mM; for Shear force, 3 d: 3 d postmortem; for Shear force, 7 d: 7 d postmortem
Method: as §2, §3, §4

[5] = test system: Triceps brachii (TBR) steaks; experiment: Consumer panel palatability ratings of steaks; design: species or system steers; details: for Flavor / Tenderness: TBR, 9-point hedonic scale
Method: as §1

[6] = test system: Infraspinatus (ISP) steaks; experiment: Consumer panel palatability ratings of steaks; design: species or system steers; details: for Flavor / Tenderness: ISP, 9-point hedonic scale
Method: as §1

spoilage micro-organisms = experiment: Microbial stability (logarithmic microbiological growth); details: for Logarithmic Microbiological Growth Values, difference: difference day 5 - day 0
Method: as §1
There were no differences in initial microbial load among the treatments.

[7] = 400 mM, Triceps brachii, day 1 and day 7, P<0.10, data not shown
[8] = 400 mM, Infraspinatus, day 1 and day 7, P<0.10, data not shown

O=C([O-])CC(O)(CC(=O)[O-])C(=O)[O-].[Na+].[Na+].[Na+] [Sodium citrate, sodium citrate]
WBSF (Supraspinatus (SSP); 200 mM, d1): 4.09^a
WBSF (Supraspinatus (SSP); 200 mM, d7): 3.83^a
WBSF (Supraspinatus (SSP); 400 mM, d1): 3.91^a
WBSF (Supraspinatus (SSP); 400 mM, d7): 4.03^a
WBSF (Infraspinatus (ISP); 200 mM, d1): 3.57^b
WBSF (Infraspinatus (ISP); 200 mM, d7): 3.12^b
WBSF (Infraspinatus (ISP); 400 mM, d1): 3.32^a
WBSF (Infraspinatus (ISP); 400 mM, d7): 2.79^a
Shear force, kg (72 h) [1]: 11.09^ab kg
Shear force, 3 d ([2]; 3 d postmortem, calcium chloride 300 mM): 5.06^c kg
Shear force, 7 d ([2]; 7 d postmortem, calcium chloride 300 mM): 4.89^b kg
reduced shear force compared with controls ([2]; supraspinatus, 3 days post-mortem, CaCl2 300 mM): 2.22 kg
Shear force, 3 d ([3]; 3 d postmortem): 5.14 kg
Shear force, 7 d ([3]; 7 d postmortem): 4.41 kg
Shear force, 14 d ([3]; 14 d postmortem): 3.96 kg
Shear force, 3 d [4]: 4.54^c kg
Shear force, 3 d ([4]; listed as NaC): most tender meat; also recorded: more tender
Shear force, 7 d [4]: 4.20^c kg
Shear force, 7 d ([4]; listed as NaC): lower shear force values than CaCl2
Shear force, 14 d ([4]; 14 d postmortem): 3.69 kg
Flavor ([5]; 200 mM, d1): 5.23^a
Tenderness ([5]; 200 mM, d1): 4.81^b
Flavor ([5]; 200 mM, d7): 4.87^a
Flavor ([5]; 400 mM, d1): 5.30^a*
Tenderness ([5]; 400 mM, d1): 5.25^a
Flavor ([5]; 400 mM, d7): 5.18^a
Tenderness ([5]; 400 mM, d7): 5.48^a
Connective tissue amount rating vs controls [5, 7]: more desirable
Juiciness rating vs controls [5, 7]: more desirable
Flavor ([6]; 200 mM, d1): 5.33^a,b
Tenderness ([6]; 200 mM, d1): 5.36^a,b
Flavor ([6]; 200 mM, d7): 5.35^a
Tenderness ([6]; 200 mM, d7): 5.68^a
Flavor ([6]; 400 mM, d1): 5.49^a*
Tenderness ([6]; 400 mM, d1): 5.67^a
Flavor ([6]; 400 mM, d7): 5.41^a
Tenderness ([6]; 400 mM, d7): 5.90^a
Connective tissue amount rating vs controls [6, 8]: more desirable
Juiciness rating vs controls [6, 8]: more desirable
Logarithmic Microbiological Growth Values (spoilage micro-organisms; 200 mM, day 0): 2.58
Logarithmic Microbiological Growth Values (spoilage micro-organisms; 200 mM, day 5): 5.45^b
Logarithmic Microbiological Growth Values, difference (spoilage micro-organisms; 200 mM): 2.88^b
Logarithmic Microbiological Growth Values (spoilage micro-organisms; 400 mM, day 0): 2.72
Logarithmic Microbiological Growth Values (spoilage micro-organisms; 400 mM, day 5): 5.11^b
Logarithmic Microbiological Growth Values, difference (spoilage micro-organisms; 400 mM): no greater microbial growth than the control
Logarithmic Microbiological Growth Values, difference (spoilage micro-organisms; 400 mM, listed as NaCit): 2.40^a,b
